Reference: ChEMBL document CHEMBL4825664, “17-Hydroxybrevianamide N and Its N1-Methyl Derivative, Quinazolinones from a Soft-Coral-Derived Aspergillus sp. Fungus: 13S Enantiomers as the True Natural Products” (J Nat Prod, 2021)
Active and inactive are the calls of the source.

How the values were obtained:
Type in all cases: functional, organism-based
Influenza A virus = assay: Antiviral activity against Influenza virus H1N1 at 100 uM
Pseudomonas aeruginosa = assay: Antibacterial activity against Pseudomonas aeruginosa at 20 ug/ml; conditions: dose 20.0 µg/ml
Staphylococcus aureus = assay: Antibacterial activity against Staphylococcus aureus at 20 ug/ml; conditions: dose 20.0 µg/ml
Escherichia coli = assay: Antibacterial activity against Escherichia coli at 20 ug/ml; conditions: dose 20.0 µg/ml
Candida albicans = assay: Antifungal activity against Candida albicans at 20 ug/ml; conditions: dose 20.0 µg/ml

Measured: Activity

O=C1NC(=O)[C@@H](Cc2ccccc2O)n2c1nc1ccccc1c2=O
inactive: all assays above

O=C1NC(=O)[C@H](Cc2ccccc2O)n2c1nc1ccccc1c2=O
inactive: all assays above

CN1C(=O)c2nc3ccccc3c(=O)n2[C@H](Cc2ccccc2O)C1=O
inactive: all assays above

CN1C(=O)c2nc3ccccc3c(=O)n2[C@@H](Cc2ccccc2O)C1=O
inactive: all assays above
